Reference: PubChem BioAssay (NCI)
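Dose response: 5 concentrations. Exposure: 48 h. Format: 96-well plates. Endpoint: linear interpolation; highest concentration if not reached. The concentration for 50% growth inhibition is given as GI50. TGI: total growth inhibition.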

Experiments:
Experiment in all cases: NCI anticancer screen, dose series, 48 h
[1] = test system: SK-MEL-5 melanoma
[2] = test system: ACHN renal
[3] = test system: HOP-92 NSCLC
[4] = test system: M14 melanoma
[5] = test system: NCI-H226 lung
[6] = test system: NCI/ADR-RES ovarian
[7] = test system: NCI-H23 lung
[8] = test system: TK-10 renal
[9] = test system: K-562 leukemia
[10] = test system: SK-MEL-28 melanoma
[11] = test system: HS 578T breast
[12] = test system: A549 NSCLC
[13] = test system: OVCAR-8 ovarian
[14] = test system: SK-MEL-2 melanoma
[15] = test system: SN12C renal
[16] = test system: KM12 colon
[17] = test system: EKVX NSCLC
[18] = test system: A498 renal
[19] = test system: UACC-257 melanoma
[20] = test system: BT-549 breast
[21] = test system: NCI-H522 lung
[22] = test system: SNB-75 CNS
[23] = test system: SR leukemia
[24] = test system: COLO 205 colon
[25] = test system: MDA-MB-435
[26] = test system: MDA-MB-231 breast
[27] = test system: T-47D breast
[28] = test system: SNB-19 CNS
[29] = test system: LOX IMVI melanoma
[30] = test system: IGROV1 ovarian
[31] = test system: SK-OV-3 ovarian
[32] = test system: MOLT-4 leukemia
[33] = test system: RXF 393 renal
[34] = test system: HT29 colon
[35] = test system: HCT-116 colon
[36] = test system: SW-620 colon
[37] = test system: OVCAR-4 ovarian
[38] = test system: NCI-H460 lung
[39] = test system: U251 CNS
[40] = test system: SF-268 CNS
[41] = test system: CCRF-CEM leukemia
[42] = test system: OVCAR-5 ovarian
[43] = test system: DU-145 prostate
[44] = test system: MCF7 breast
[45] = test system: MALME-3M melanoma
[46] = test system: HL-60(TB) leukemia
[47] = test system: OVCAR-3 ovarian
[48] = test system: HOP-62 NSCLC
[49] = test system: RPMI-8226 leukemia
[50] = test system: HCT-15 colon
[51] = test system: SF-295 CNS
[52] = test system: SF-539 CNS
[53] = test system: HCC-2998 colon
[54] = test system: UO-31 renal
[55] = test system: CAKI-1 renal
[56] = test system: 786-0 renal

## CS(=O)(=O)OCCn1c2c(c3c(O)cccc31)C(=O)c1ccccc1-2
[1]
  GI50: > 100 µM
  TGI: > 100 µM
[2]
  GI50: 60.3 µM
  TGI: > 100 µM
[3]
  GI50: 24.7 µM
  TGI: > 100 µM
[4]
  GI50: > 100 µM
  TGI: > 100 µM
[5]
  GI50: 39.7 µM
  TGI: > 100 µM
[6]
  GI50: > 100 µM
  TGI: > 100 µM
[7]
  GI50: > 100 µM
  TGI: > 100 µM
[8]
  GI50: > 100 µM
  TGI: > 100 µM
[9]
  GI50: > 100 µM
  TGI: > 100 µM
[10]
  GI50: > 100 µM
  TGI: > 100 µM
[11]
  GI50: > 100 µM
  TGI: > 100 µM
[12]
  GI50: > 100 µM
  TGI: > 100 µM
[13]
  GI50: > 100 µM
  TGI: > 100 µM
[14]
  GI50: > 100 µM
  TGI: > 100 µM
[15]
  GI50: 33.7 µM
  TGI: > 100 µM
[16]
  GI50: 80.2 µM
  TGI: > 100 µM
[17]
  GI50: > 100 µM
  TGI: > 100 µM
[18]
  GI50: > 100 µM
  TGI: > 100 µM
[19]
  GI50: > 100 µM
  TGI: > 100 µM
[20]
  GI50: > 100 µM
  TGI: > 100 µM
[21]
  GI50: 95.1 µM
  TGI: > 100 µM
[22]
  GI50: > 100 µM
  TGI: > 100 µM
[23]
  GI50: 10.3 µM
  TGI: > 100 µM
[24]
  GI50: > 100 µM
  TGI: > 100 µM
[25]
  GI50: 46 µM
  TGI: > 100 µM
[26]
  GI50: 20.4 µM
  TGI: > 100 µM
[27]
  GI50: 64.7 µM
  TGI: > 100 µM
[28]
  GI50: 40.7 µM
  TGI: > 100 µM
[29]
  GI50: 54.1 µM
  TGI: > 100 µM
[30]
  GI50: > 100 µM
  TGI: > 100 µM
[31]
  GI50: 29 µM
  TGI: > 100 µM
[32]
  GI50: 36.5 µM
  TGI: > 100 µM
[33]
  GI50: > 100 µM
  TGI: > 100 µM
[34]
  GI50: 99.8 µM
  TGI: > 100 µM
[35]
  GI50: 44.7 µM
  TGI: > 100 µM
[36]
  GI50: > 100 µM
  TGI: > 100 µM
[37]
  GI50: > 100 µM
  TGI: > 100 µM
[38]
  GI50: > 100 µM
  TGI: > 100 µM
[39]
  GI50: 77.3 µM
  TGI: > 100 µM
[40]
  GI50: 78.5 µM
  TGI: > 100 µM
[41]
  GI50: 37.1 µM
  TGI: > 100 µM
[42]
  GI50: > 100 µM
  TGI: > 100 µM
[43]
  GI50: > 100 µM
  TGI: > 100 µM
[44]
  GI50: > 100 µM
  TGI: > 100 µM
[45]
  GI50: > 100 µM
  TGI: > 100 µM
[46]
  GI50: 30.9 µM
  TGI: > 100 µM
[47]
  GI50: 66.6 µM
  TGI: > 100 µM
[48]
  GI50: 87.1 µM
  TGI: > 100 µM
[49]
  GI50: 19.7 µM
  TGI: > 100 µM
[50]
  GI50: > 100 µM
  TGI: > 100 µM
[51]
  GI50: 84.3 µM
  TGI: > 100 µM
[52]
  GI50: > 100 µM
  TGI: > 100 µM
[53]
  GI50: 36 µM
  TGI: > 100 µM
[54]
  GI50: > 100 µM
  TGI: > 100 µM

## CC(C)=C[C@@H]1C[C@H](C)[C@H]2CC[C@H](C)c3c(O)c(OC4OCC(O)C(O)C4O)c(C)c1c32 (stereo partly drawn)
[1]
  GI50: 12.3 µM
  TGI: 25 µM
[2]
  GI50: 14.6 µM
  TGI: 27.8 µM
[3]
  GI50: 12.3 µM
  TGI: 24.7 µM
[4]
  GI50: 15.8 µM
  TGI: 39.3 µM
[5]
  GI50: 15.8 µM
  TGI: 30.6 µM
[6]
  GI50: 10.2 µM
  TGI: 21.9 µM
[55]
  GI50: 3.91 µM
  TGI: 18.7 µM
[7]
  GI50: 12.8 µM
  TGI: 25.5 µM
[8]
  GI50: 15.4 µM
  TGI: 28.9 µM
[9]
  GI50: 5.73 µM
  TGI: 20.5 µM
[10]
  GI50: 14.4 µM
  TGI: 27.7 µM
[11]
  GI50: 15.4 µM
  TGI: 32.1 µM
[12]
  GI50: 10.3 µM
  TGI: 22.7 µM
[13]
  GI50: 16.6 µM
  TGI: 33 µM
[14]
  GI50: 20.8 µM
  TGI: 36.4 µM
[15]
  GI50: 10.2 µM
  TGI: 21.8 µM
[16]
  GI50: 12.7 µM
  TGI: 25.3 µM
[17]
  GI50: 18.8 µM
  TGI: 33.3 µM
[18]
  GI50: 13.4 µM
  TGI: 27.5 µM
[19]
  GI50: 6.44 µM
  TGI: 19.7 µM
[20]
  GI50: 21.6 µM
  TGI: 39.9 µM
[21]
  GI50: 16.4 µM
  TGI: 30.2 µM
[22]
  GI50: 12.7 µM
  TGI: 25.9 µM
[23]
  GI50: 6.92 µM
  TGI: 20.5 µM
[24]
  GI50: 15.5 µM
  TGI: 29.7 µM
[25]
  GI50: 11.4 µM
  TGI: 24.3 µM
[26]
  GI50: 13.5 µM
  TGI: 26.3 µM
[27]
  GI50: 13.3 µM
  TGI: 28.1 µM
[28]
  GI50: 16.2 µM
  TGI: 29.8 µM
[29]
  GI50: 15 µM
  TGI: 28.2 µM
[30]
  GI50: 12 µM
  TGI: 24.3 µM
[31]
  GI50: 18.9 µM
  TGI: 33.2 µM
[32]
  GI50: 5.24 µM
  TGI: 19.7 µM
[33]
  GI50: 10.9 µM
  TGI: 23.4 µM
[34]
  GI50: 11.7 µM
  TGI: 24.7 µM
[35]
  GI50: 13.9 µM
  TGI: 28.4 µM
[36]
  GI50: 15.9 µM
  TGI: 29.3 µM
[37]
  GI50: 9.39 µM
  TGI: 22.1 µM
[38]
  GI50: 12.3 µM
  TGI: 24.7 µM
[39]
  GI50: 16.1 µM
  TGI: 29.6 µM
[40]
  GI50: 12.4 µM
  TGI: 24.9 µM
[42]
  GI50: 12.6 µM
  TGI: 25.2 µM
[43]
  GI50: 11.8 µM
  TGI: 24 µM
[44]
  GI50: 13.1 µM
  TGI: 25.8 µM
[45]
  GI50: 14.1 µM
  TGI: 27.6 µM
[46]
  GI50: 10.9 µM
  TGI: 24.5 µM
[47]
  GI50: 11.9 µM
  TGI: 24.3 µM
[48]
  GI50: 18.2 µM
  TGI: 33.6 µM
[49]
  GI50: 10.8 µM
  TGI: 22.9 µM
[50]
  GI50: 14 µM
  TGI: 26.9 µM
[51]
  GI50: 14.2 µM
  TGI: 29.3 µM
[56]
  GI50: 17.9 µM
  TGI: 34.8 µM
[52]
  GI50: 18.7 µM
  TGI: 34.6 µM
[53]
  GI50: 4.43 µM
  TGI: 19.8 µM
[54]
  GI50: 17.8 µM
  TGI: 31.6 µM
